Source: ChEMBL document CHEMBL1817645, “Synthesis and pharmacological evaluation of 1-alkyl-N-[2-ethyl-2-(4-fluorophenyl)butyl]piperidine-4-carboxamide derivatives as novel antihypertensive agents” (Bioorg Med Chem, 2011)
pIC50: −log10 of the molar value. Active and inactive are the calls of the source. No cut-off for these calls is given here.

Biological target: Voltage-dependent T-type calcium channel subunit alpha-1G (Homo sapiens, UniProt O43497)
Experiment: Inhibition of human Cav3.1 alpha1G expressed in HEK293 cells assessed as inhibition of calcium influx by FLIPR assay
Format: cell-based
Conditions: not given

Chain of Voltage-dependent T-type calcium channel subunit alpha-1G (O43497 whole entry): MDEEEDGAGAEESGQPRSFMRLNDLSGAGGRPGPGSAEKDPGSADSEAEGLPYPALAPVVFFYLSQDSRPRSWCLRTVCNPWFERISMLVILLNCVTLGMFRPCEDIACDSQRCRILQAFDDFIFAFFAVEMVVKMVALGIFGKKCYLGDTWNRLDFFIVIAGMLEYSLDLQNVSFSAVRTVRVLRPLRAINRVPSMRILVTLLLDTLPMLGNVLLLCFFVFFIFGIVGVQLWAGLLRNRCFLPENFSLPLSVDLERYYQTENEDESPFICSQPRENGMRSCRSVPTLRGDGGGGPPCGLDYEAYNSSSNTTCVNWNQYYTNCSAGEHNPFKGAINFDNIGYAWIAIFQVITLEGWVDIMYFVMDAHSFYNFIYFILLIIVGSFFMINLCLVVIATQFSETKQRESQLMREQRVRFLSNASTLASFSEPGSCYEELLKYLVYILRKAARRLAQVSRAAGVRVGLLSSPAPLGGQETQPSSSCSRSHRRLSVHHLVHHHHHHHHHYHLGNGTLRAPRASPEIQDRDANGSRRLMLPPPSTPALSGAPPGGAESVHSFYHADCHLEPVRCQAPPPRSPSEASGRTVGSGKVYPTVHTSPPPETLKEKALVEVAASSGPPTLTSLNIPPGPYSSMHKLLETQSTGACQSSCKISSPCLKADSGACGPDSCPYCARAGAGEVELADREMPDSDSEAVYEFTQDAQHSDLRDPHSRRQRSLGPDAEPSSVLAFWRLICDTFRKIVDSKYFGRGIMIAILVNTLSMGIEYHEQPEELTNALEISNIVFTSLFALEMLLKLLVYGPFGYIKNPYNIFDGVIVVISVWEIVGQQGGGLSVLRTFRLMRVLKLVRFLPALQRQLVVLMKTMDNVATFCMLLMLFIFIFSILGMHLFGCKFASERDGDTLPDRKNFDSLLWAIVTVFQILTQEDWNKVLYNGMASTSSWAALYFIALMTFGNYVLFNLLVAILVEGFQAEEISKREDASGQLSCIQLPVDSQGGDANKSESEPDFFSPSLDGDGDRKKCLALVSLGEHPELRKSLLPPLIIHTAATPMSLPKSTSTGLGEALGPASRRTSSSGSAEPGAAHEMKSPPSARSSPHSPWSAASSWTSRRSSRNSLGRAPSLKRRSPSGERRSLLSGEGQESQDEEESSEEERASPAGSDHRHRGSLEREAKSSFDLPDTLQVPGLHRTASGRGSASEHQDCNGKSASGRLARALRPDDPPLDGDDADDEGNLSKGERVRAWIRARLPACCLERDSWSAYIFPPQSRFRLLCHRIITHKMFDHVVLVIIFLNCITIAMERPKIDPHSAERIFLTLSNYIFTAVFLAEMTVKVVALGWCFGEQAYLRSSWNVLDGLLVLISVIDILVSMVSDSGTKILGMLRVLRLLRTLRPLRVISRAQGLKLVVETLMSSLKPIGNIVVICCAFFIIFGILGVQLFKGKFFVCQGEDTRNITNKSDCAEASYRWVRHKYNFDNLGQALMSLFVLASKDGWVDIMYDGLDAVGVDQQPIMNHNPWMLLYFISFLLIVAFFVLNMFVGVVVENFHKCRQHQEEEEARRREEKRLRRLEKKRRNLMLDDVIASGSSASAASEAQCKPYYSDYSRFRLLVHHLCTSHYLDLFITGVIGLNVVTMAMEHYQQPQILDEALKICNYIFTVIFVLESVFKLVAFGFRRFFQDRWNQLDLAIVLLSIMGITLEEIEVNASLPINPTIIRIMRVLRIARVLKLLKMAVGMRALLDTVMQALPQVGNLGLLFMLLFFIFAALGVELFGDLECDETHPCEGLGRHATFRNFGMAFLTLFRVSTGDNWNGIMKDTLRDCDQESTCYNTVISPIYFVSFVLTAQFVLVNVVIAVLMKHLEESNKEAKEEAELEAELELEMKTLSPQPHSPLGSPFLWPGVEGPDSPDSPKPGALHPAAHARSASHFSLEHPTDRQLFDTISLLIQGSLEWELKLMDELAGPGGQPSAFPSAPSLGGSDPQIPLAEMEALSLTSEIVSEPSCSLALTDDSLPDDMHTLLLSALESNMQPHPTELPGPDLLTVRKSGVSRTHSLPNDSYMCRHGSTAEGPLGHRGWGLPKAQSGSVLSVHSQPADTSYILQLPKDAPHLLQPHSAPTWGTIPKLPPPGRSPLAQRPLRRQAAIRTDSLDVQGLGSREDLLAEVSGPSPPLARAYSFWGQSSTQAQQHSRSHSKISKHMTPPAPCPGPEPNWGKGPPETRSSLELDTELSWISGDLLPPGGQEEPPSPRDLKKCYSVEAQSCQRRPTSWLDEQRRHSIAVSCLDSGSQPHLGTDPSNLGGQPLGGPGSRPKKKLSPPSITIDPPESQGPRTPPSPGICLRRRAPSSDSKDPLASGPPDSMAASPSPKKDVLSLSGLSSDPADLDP

| SMILES | pIC50 |
| --- | --- |
| O=C(CCC1(c2ccc(F)cc2)CCCCC1)C1CCN(Cc2ccccc2)CC1 | 5.70 |
| O=C(NCC1(c2ccc(F)cc2)CCCC1)C1CCN(Cc2ccccc2)CC1 | 6.66 |
| CC(C)(CNC(=O)C1CCN(Cc2ccccc2)CC1)c1ccc(F)cc1 | 6.89 |
| CCC(CC)(CNC(=O)C1CCN(Cc2ccc(OC)cc2)CC1)c1ccc(F)cc1 | 6.70 |
| CCC(CC)(CNC(=O)C1CCN(CCOc2ccccc2)CC1)c1ccc(F)cc1 | 6.59 |
| O=C(NCC1(c2ccc(F)cc2)CCCCC1)C1CCCN(Cc2ccccc2)C1 (configuration not stated) | 5.92 |
| COc1ccc(CN2CCC(C(=O)NCC3(c4ccc(F)cc4)CCCCC3)CC2)cc1OC | 6.49 |
| CCC(CC)(CNC(=O)C1CCN(CCc2ccc(F)cc2)CC1)c1ccc(F)cc1 | 6.74 |
| CCC(CC)(CNC(=O)C1CCN(CCc2cccc(OC)c2)CC1)c1ccc(F)cc1 | 6.85 |
| O=C(CC1(c2ccc(F)cc2)CCCCC1)NC1CCN(Cc2ccccc2)CC1 | 6.07 |
| CCCC(CCC)(CNC(=O)C1CCN(Cc2ccccc2)CC1)c1ccc(F)cc1 | 6.43 |
| CN(CC1(c2ccc(F)cc2)CCCCC1)C(=O)C1CCN(Cc2ccccc2)CC1 | 6.12 |
| O=C(NCC1(c2ccc(F)cc2)CCC1)C1CCN(Cc2ccccc2)CC1 | 6.41 |
| O=C(NCC1(c2ccc(F)cc2)CCCCC1)C1CCN(Cc2ccccc2)CC1 | 6.29 |
| O=C(NCC1(c2ccc(F)cc2)CCCCC1)C1CCCCN1Cc1ccccc1 (configuration not stated) | 5.52 |
| CCC(CC)(CNC(=O)C1CCN(CCCCc2ccccc2)CC1)c1ccc(F)cc1 | 6.60 |
| CCC(CC)(CNC(=O)C1CCN(CCc2ccc(OC)cc2)CC1)c1ccc(F)cc1 | 6.11 |
| O=C(NCC1(c2ccc(F)cc2)CCOCC1)C1CCN(Cc2ccccc2)CC1 | 5.66 |
| Fc1ccc(C2(CNCC3CCN(Cc4ccccc4)CC3)CCCCC2)cc1 | 5.92 |

Continued, values first:

| pIC50 | SMILES |
| --- | --- |
| 6.77 | CCC(CC)(CNC(=O)C1CCN(CCc2ccccc2OC)CC1)c1ccc(F)cc1 |
| 6.89 | CCC(CC)(CNC(=O)C1CCN(CCc2cccc(F)c2)CC1)c1ccc(F)cc1 |
| 7.44 | CCC(CC)(CNC(=O)C1CCN(Cc2ccccc2F)CC1)c1ccc(F)cc1 |
| 7.09 | CCC(CC)(CNC(=O)C1CCN(Cc2ccc(F)cc2)CC1)c1ccc(F)cc1 |
| 7.05 | CCC(CC)(CNC(=O)C1CCN(CCc2ccccc2F)CC1)c1ccc(F)cc1 |
| 6.62 | CCC(CC)(CNC(=O)C1CCN(CCCc2ccccc2)CC1)c1ccc(F)cc1 |
| 7.03 | CCC(CC)(CNC(=O)C1CCN(Cc2cccc(OC)c2)CC1)c1ccc(F)cc1 |
| 6.89 | CCC(CC)(CNC(=O)C1CCN(Cc2cccc(F)c2)CC1)c1ccc(F)cc1 |
| 7.05 | CCC(CC)(CNC(=O)C1CCN(CCc2ccccc2)CC1)c1ccc(F)cc1 |
| 6.92 | CCC(CC)(CNC(=O)C1CCN(Cc2ccccc2OC)CC1)c1ccc(F)cc1 |
| 7.07 | CCC(CC)(CNC(=O)C1CCN(Cc2ccccc2)CC1)c1ccc(F)cc1 |

System: not listed separately
Experiment: Bradycardic activity in Hartley guinea pig right atrial muscles assessed as reduction of initial spontaneous beat rate after 30 mins
Format: functional
Conditions: Cavia porcellus, Muscle tissue, 0.5 h

| SMILES | EC30 [nM] |
| --- | --- |
| CCC(CC)(CNC(=O)C1CCN(Cc2ccccc2F)CC1)c1ccc(F)cc1 | 4200 |
| COc1ccc(CN2CCC(C(=O)NCC3(c4ccc(F)cc4)CCCCC3)CC2)cc1OC | 2100 |
| CCC(CC)(CNC(=O)C1CCN(CCc2ccccc2)CC1)c1ccc(F)cc1 | 2500 |
| COCC(=O)O[C@]1(CCN(C)CCCc2nc3ccccc3[nH]2)CCc2cc(F)ccc2[C@@H]1C(C)C [MIBEFRADIL] | 2900 |

System: Rattus norvegicus
Experiment: Toxicity in spontaneously hypertensive rat assessed as effect on reflex tachycardia at 30 mg/kg, po after 8 hrs
Format: organism-based
Set-up: dose 30 mg/kg, route oral
Conditions: in vivo

| SMILES | Activity |
| --- | --- |
| CCC(CC)(CNC(=O)C1CCN(CCc2ccccc2)CC1)c1ccc(F)cc1 | Non-toxic |

System: Rattus norvegicus
Experiment: Antihypertensive activity in spontaneously hypertensive rat assessed as reduction of mean blood pressure at 30 mg/kg, po
Format: functional
Set-up: scale not given: the % may be the effect or the level left
Conditions: not given

| SMILES | Activity [%] |
| --- | --- |
| CCC(CC)(CNC(=O)C1CCN(CCc2ccccc2)CC1)c1ccc(F)cc1 | 22 |

System: Rattus norvegicus
Experiment: Antihypertensive activity in spontaneously hypertensive rat assessed as reduction of mean blood pressure at 30 mg/kg, po after 8 hrs
Format: functional, organism-based
Set-up: dose 30 mg/kg
Conditions: not given

| SMILES | Activity |
| --- | --- |
| CCC(CC)(CNC(=O)C1CCN(CCc2ccccc2)CC1)c1ccc(F)cc1 | Active |
